Results reported in US12055553B2, “Method for diagnosing risk for inflammatory disease through glycan profiling” (The Regents of the University of California, priority 2017, dated 2024).

Experiments:
[1] = tested on: THP-1 cells; experiment: Lectin array of THP-1 monocyte cell surface glycan composition after monosaccharide supplementation; type: cell-based; conditions: 3 days
Protocol: THP-1 cells (monocyte cell line) were incubated with different sugars (i.e. monosaccharides) for 3 days. Lectin arrays were used to detect changes in the cell surface glycan composition. Secreted HDL from the cell supernatant (monocytes secrete their own HDL) was isolated and then analyzed to determine the glycan composition.
• ConA (Concanavalin A): binds internal and nonreducing terminal α-D-mannosyl (αMan) and α-D-glucosyl groups (αGIc) • JAC (Jacalin): binds galactose-containing O-glycoproteins (Galβ3GalNac) • SNA (Sambucus nigra): binds sialic acid attached to terminal galactose in α-2,6 and to a lesser degree, α-2,3 linkage (Neu5Acα6Gal/GalNac) • AAL (Aleuria auanda lectin): binds fucose linked (α-1,6) to N-acetylglucosamine or to fucose linked (α-1,3) to N-acetyllactosamine related structures, exposed core (α-1, 6) and outer arm (α-1, 2 or α-1, 3) linked fucose moieties. Sugar Treatments: • L-fucose: Tested 2 doses: 300 umol/L (physiologic) and 100 mmol/L. (Marquardt T, Blood, December 15; 94(12):3976-85, 1999): Named L-Fuc Low and L-Fuc High • Fructose: Tested 2 doses: 27 mmol/L (physiologic) and 100 mmol/L. (Hui H, Pancreas, August 38(6): 706-12, 2009); Named Fruc Low and Fruc High • N-acetylglucosamine (GlcNAc): Tested 1 dose: 100 mmol/L. (Villiger TK, Controlling the time evolution of mAb N-finked glycosylation, Part I: Microbioreactor experiments, Biotechnol Prog, September; 32(5):1123-1134, 2016) • Galactose: The two doses for the galactose treatment in the glycan array experiments were: 150 mmol/L and 75 mmol/L. (Villiger TK, Controlling the time evolution of mAb N-linked glycosylation, Part II: Model-based predictions, Biotechnol Prog, September; 32(5):135-1148, 2016)

[2] = tested on: Caco-2 cells; type: cell-based
Protocol: (§1) We examined whether supplementation of free monosacchaides derived from diet changes N-glycosylation outcomes on the intestinal cell-surface at concentrations relevant to physiological conditions. Changes in glycosylation were assessed by globally releasing glycans from membrane proteins extracted from fully differentiated (Caco-2) and partially differentiated (HT-29) intestinal epithelial cells and analyzing the mixture by porous graphitized carbon (PGC)-LC-MS. […] The glycan profile under normal growth conditions was used as a frame of reference with which to compare the glycome at varied environments.
(§2) Human colorectal adenocarcinoma Caco-2 cells derived from a person, were obtained from American Type Culture Collection (ATCC, VA) and grown in Eagle's Minimum Essential Medium (EMEM) supplemented with non-essential amino acids, 2 mM L-glutamine, 10% (v/v) fetal bovine serum (Life Technologies, NY), 1 mM sodium pyruvate, 1.5 g/L sodium bicarbonate, 100 U/mL penicillin, and 100 μg/mL streptomycin. Alternatively, Caco-2 cells were grown in Dulbecco's Modified Eagle's Medium (DMEM) supplemented with 10% (v/v) fetal bovine serum, 100 U/mL penicillin, and 100 μg/mL streptomycin. Human colorectal adenocarcinoma HT-29 cells, derived from a person, were obtained from ATCC and grown in McCoy's 5A medium supplemented with 10% (v/v) fetal bovine serum, 100 U/mL penicillin, and 100 μg/mL streptomycin. Cells were subcultured at 80% confluency and maintained at 37° C. in a humidified incubator with 5% CO=2. All treatments were added to the media after cell differentiation. Caco-2 cells were fully differentiated 14-days post-confluency. HT-29 cells were partially differentiated 4-days post-confluency. After 72 h, cells were collected in biological triplicates by scraping A fixed count of 2×10^6 viable cells was used for each experiment Passage number between experiments was controlled to no higher than P40 and a delta P of no more than 20. High passage cells were scraped after P80. Media was renewed three times a week unless specified. Monolayer integrity and quality of cell borders were evaluated under the microscope routinely during growth and before harvest.
(§3) In brief harvested cells were resuspended in homogenization buffer containing 0.25 M sucrose, 20 mM HEPES-KOH (pH 7.4), and 1:100 protease inhibitor (EMD Millipore, CA). Cell lysis was performed on ice using a probe sonicator (Qsonica, CT) with five alternating and on and off pulses in 5 and 10 s intervals, respectively. Lysates were […] at 2,000×g for 10 min to remove the nuclear fraction and cellular debris. The supernatant was collected and brought to 1 mL with homogenization buffer for ultracentrifugation at 200,000×g for 45 min at 4° C. The pallet was resuspended and repelleted by ultracentrifugation in 0.2 M Na2CO3 (pH 11) followed by water to fragment the endoplasmic reticulum and remove the cytoplasmic fraction, respectively. The resulting membrane faction was isolated and stored at −20° C. until further processing.
(§4) Membrane pellets were resuspended with 100 μL of 100 mM ammonium bicarbonate in 5 mM dithiothreitol and heated for 10 s at 100° C. to thermally denature the proteins. […] After addition of 400 μL of chilled ethanol, samples were placed in −80° C. for 1.5 h and centrifuged for 20 min at 21,130×g to precipitate residual deglycosylated proteins. The supernatant containing the released N-glycans was collected and dried. N-Glycans were purified by solid phase extraction containing a porous graphitized carbon (PGC) matrix. Eluted fractions were dried in vacuo.

[3] = tested on: HT-29 cells; experiment: Cell surface N-glycan profiling (PGC-LC-MS) of HT-29 after supplementation; type: cell-based, Human; conditions: HT-29, 72 h, fructose 50 mM, glutamine 10 mM
Protocol: as §1, §2, §3, §4

[4] = tested on: dipeptidyl peptidase IV (DPP IV); experiment: Dipeptidyl peptidase IV activity in membrane fractions of treated Caco-2 cells; type: cell-based, Human; conditions: membrane fractions of kifunensine-treated cells
Protocol: Dipeptidyl peptidase IV (DPP IV) activity was measured in membrane-enriched fractions using a colorimetric assay per manufacturer's instructions (Enzo Life sciences, NY). Membrane extracts from control and kifunensine-treated cells were incubated with a chromogenic substrate (H-Gly-Pro-pNa) at 25° C. for 30 min. Cleavage of p-nitroaniline (pNA) was monitored by absorbance measurements at […] with a microplate photometer. Enzyme activities were compared to a standard curve generated using a pNA standard. A reaction containing a DPP IV inhibitor (P32/98) was included as a control for enzymatic specificity.

[5] = tested on: Caco-2 cells; experiment: Permeability assay, FITC-dextran passage through Caco-2 monolayer; type: cell-based, Human; conditions: 100 μg/mL treatment, after 2 h, untreated to treated, n=4
Protocol: Caco-2 cells were seeded on porous polycarbonate filter membranes (3401; Corning, NY) until cells formed a single monolayer and were fully differentiated. Kifunensine (Carbosynth, CA) was added post-differeniation for 72 h. Four replicates were prepared for both control and kifunensine-treated cases. Permeability experiments were performed in Hank's Balanced Salt Solution, prepared with 25 mM HEPES, 0.35 g/L sodium bicarbonate, and adjusted to pH 7.4 with sodium hydroxide. The prepared membranes were washed and inserted into a new micro-well plate. FITC-dextran (4 kDa) (Sigma-Aldrich, MO) was introduced to the upper (apical) chamber at 10 mg/mL. The plate was placed in a 37° C. incubator devoid of CO2 for 2 h on an orbital shaker at 100 rpm. The amount of FITC-dextran that transferred through the cells was measured in the lower (basolateral) chamber by fluorescence at 492/520 nm (excitation/emission) using a Perkin Elmer Victor3 Multilabel Plate Reader (Parkin Elmer, MA). The apparent permeability coefficient was determined according to the following equation: [formula] where dQ/dt is the rate of permeation across cells, A is the surface area of the membrane, and C0 is the initial donor concentration. Transepithelial electrical resistance (TEER) values were measured using a Millicell ERS Voltohmmeter (EMD Millipore, MA) at room temperature. Enzyme Activity Assay

[6] = tested on: alkaline phosphatase (IAP); experiment: Intestinal alkaline phosphatase activity in membrane fractions of treated Caco-2 cells; type: cell-based, Human; conditions: enriched membrane fractions of kifunensine-treated (high mannose rich) cells
Protocol: Intestinal alkaline phosphatase (IAP) activity was measured in membrane-enriched factions using a colorimetric assay per manufacturer's instructions (Abcam, MA). Cells were incubated with 50 μM p-nitrophenyl phosphate (p-NPP) for 60 min. Dephosphorylated was monitored by the production of p-nitrophenyl, which turns the solution to a visible yellow color. Absorbance readings were taken at 405 nm with a microplate photometer. Enzyme activities were determined with a standard curve generated using IAP enzyme. Activity was measured in U/mL, where a Unit is defined as the amount of enzyme to hydrolyze 1 μmol of p-NPP per minute at 37° C.

[7] = tested on: methicillin-resistant Staphylococcus aureus (MRSA); experiment: Bacterial association assay on Caco-2 host cells, MRSA; type: cell-based
Protocol: (§5) Enterohaemorrhagic Escherichia coli O157H;7 (EHEC) and methicillin-resistant Staphyloccuus aureus (MRSA) were grown at 37° C. with continuous shaking for 14-16 h.
(§6) Caco-2 cells were seeded into 24-well plates at 5×10^5 cells per well. Wells were designated as control (Row 1) or treated with kifunensine (Row 2). For adhesion, the left half of the plate was infected with logarithmically growing enterohaemorrhagic Escherichia coli O157:H7 (EHEC), and the right half of the plate was infected with methicillin-resistant Staphylocaccus aureus (MRSA). Triplicate setups were prepared for each condition. After 2 h, the wells were washed 3× with PBS and the adherent cell counts were determined by serial dilutions and spotting of the lysate generated upon treatment of the wells with, PBS/0.5% Triton for 5 min. CFU are expressed per mL as a comparison between the different treatments. For measuring uptake, the duplicate plate was similarly infected with EHEC and MRSA. Two hours post-infection, the unbound bacteria were washed with PBS (3×) and the Caco-2-cells were treated with media containing 100 μg/mL gentamicin to lyse cell surface associated bacteria. Following a 2 h-treatment, the internalized bacterial cell counts were derived upon lysing the Caco-2 cells with PBS/0.5% Triton followed by serial dilution and CFU counts.

[8] = tested on: enterohaemorrhagic Escherichia coli (EHEC); experiment: Bacterial association assay on Caco-2 host cells, EHEC; type: cell-based, Escherichia coli O157:H7
Protocol: as §5, §6

[9] = cited from earlier work
[10] = high dose (galactose 150 mmol/L, fructose 100 mmol/L, L-fucose 100 mmol/L)
[11] = low dose (galactose 75 mmol/L, fructose 27 mmol/L, L-fucose 300 umol/L)
[12] = hyper-mannosylated (kifunensine-treated) Caco-2, within 2 h

## O=C(CO)[C@@H](O)[C@H](O)[C@H](O)CO [fructose]
[1]; [10]
  AAL binding (fucosylated glycans): decreased
  JAC binding (terminal galactose containing glycans): decreased
  SNA binding (terminal sialic acid): no effect
[1]; [11]
  AAL binding (fucosylated glycans): decreased
  SNA binding (terminal sialic acid): decreased
[1]; single dose (GlcNAc 100 mmol/L) or dose not distinguished
  ConA binding (glucose or mannose-terminated glycans): decreased
[2]; Caco-2, 72 h, fructose 50 mM, glutamine 10 mM
  increase in abundance of high mannose type N-glycans: 511%
[2]; Caco-2, 72 h, fructose 50 mM, GalNAc
  increase in abundance of non-decorated complex/hybrid type N-glycans: 672%
[2]; Caco-2, fructose 50 mM, 72 h
  fold increase of each of Hex3HexNAc4Fuc1, Hex4HexNAc5Fuc1, Hex6HexNAc4Fuc1, Hex5HexNAc5Fuc1: more than 4 fold
[3]
  change in fucosylated glycans: remained unaltered
[3]; mannose, glutamate 2 mM
  change in high mannose type glycans: remained unaltered

## O=C1N[C@@H]2[C@@H](O)[C@@H](O)[C@H](O)[C@@H](CO)N2C1=O [kifunensine]
[4]
  DPP IV activity change: nearly unaffected
[5]
  maximum increase in passage of FITC-D4 from upper to lower chamber: 64%
[6]
  decrease in IAP activity vs unaltered Caco-2 cells: ~32%
[7]; [12]
  increase in ability of MRSA to adhere to the monolayer: > 5000%
[7]; kifunensine-transformed Caco-2
  more MRSA bacteria able to invade transformed host cells than untreated cells: approximately 30%
[2]; Caco-2, kifunensine-treated
  cell viability: without affecting viability
  conversion of surface glycans into high mannose glycans: nearly complete conversion
[8]; Caco-2 rich in high mannose glycans (kifunensine-treated), p=0.0005
  EHEC uptake in comparison to control cells: significantly reduced
[8]; [12]
  EHEC binding to the monolayer: did not significantly affect

## CC(=O)N[C@H]1[C@H]([C@H](O)[C@H](O)CO)OC(O)(C(=O)O)C[C@@H]1O (stereo partly drawn) [sialic acid]
[9]
  pKa: 2.6
